Data set [1] concerns the target Klebsiella E70 β-lactamase. The data set can be described thus: β-lactamase inhibition by automated chromogenic substrate assay of Reading and Farmer. Type of data set: biochemical. As for the experimental part:
β-lactamase inhibition by (III): A solution of III was tested as a β-lactamase inhibitor by the automated chromogenic substrate assay of C. Reading and T. Farmeragainst Klebsiella E70 β-lactamase. Taking the yield of (III) from the hydrogenation reaction as 35% gave an I^50 with pre-incubation of 0.01 μg/ml and without pre-incubation of enzyme and inhibitor of 1μg/ml.

Data set [2] in a line: Spontaneous decomposition in solution (h.p.l.c. / nmr). It is filed as physicochemical. The following applies: for % of the original remaining: 0.2 M aqueous sodium phosphate pH 6.85, room temperature, h.p.l.c. The method, then:
This instability prevented full characterisation of the acid (I), so it was converted with diazomethane to its methyl ester (IV) in an overall yield of 16% from the benzyl ester (II) (A.G. Brown et al, J. Chem. Soc. Perkin Trans. I, 1984, 635). The spectral data obtained for the methyl ester (IV) were indistinguishable from those obtained by A. G. Brown et al 1984.
Benzyl 3-oxoethylidene-7-oxo-4-oxa-1-azabicyclo[3.2.0]heptane-2-carboxylate (II) (50 mg, 0. 17m mol) was dissolved in tetrahydrofuran (5 ml) and 0.2 M sodium phosphate adjusted to pH 6.85 (5 ml), and hydrogenated at ambient temperature and pressure for ten minutes with 10% palladium on carbon (40 mg). The reaction mixture was rapidly filtered and evaporated to dryness while the temperature was maintained below 10° C. The residue was immediately redissolved in D2O to give a solution of the title compound (III). δH(250 MHz, D20) inter alia E isomer 3.25 (1H, d, J 17.4 Hz, 6β-H), 3.65 (1H, dd, J 17.4 and 2.9 Hz, 6 α-H), 5.73 (1H, d, J 1.2 Hz, 2-H), 5.79 (1H, dd, J 8.3 and 1 Hz, 8-H), 5.94 (1H, d, 2.7 Hz, 5-H), 9.55 (1H, d, J 8.3 Hz, 9-H), Z isomer 3.29 (1H, d, J 17.3 Hz, 6β-H), 3.65 (1H, dd, J 17.4 and 2.9 Hz, 6 α-H), 5.27 (1H, s, 2-H), 5.50 (1H, d, J 8.2 Hz, 8-H), 6.00 (1H, d, J2.7 Hz, 5-H), and 9.70 (1H, d, J 8.2 Hz, 9-H). The E and Z isomers were assigned on the relative positions of their 8-proton resonance (Gerald Brooks+Eric Huit J.Chem.Soc. Perkin Trans. I (1983) 2513) and were in the ratio E-Z (2:1). Material prepared by the above hydrogenation with water substituting for the phosphate solution and adjustment of the pH of the reaction mixture to 6.5 with 0.1 M NaOH gave (III) (Yield 35% from NaOH consumed), λmax. (H2O) 262 nm; vmax.(KBr) 3 400, 1 792 (br), and 1 640 cm^−1 (br), […]; thin layer chromatography on silica 60 eluted with butan- 1-ol-ethanol-water (4:1:1) and visualised with Schiffs reagent gave a blue zone (Rf:0.52). Addition of a known weight of fumaric acid to the crude product solution followed by evaporation and nmr analysis indicated a yield of 20% by comparison of the intensity of the fumarate protons with the intensity of the aldehydic proton of (M). When this solution was allowed to stand at room temperature for 3.5 hours, (III) was seen to have decomposed to a yield of 3.2%.

Data set [3] has as its system broken cell suspension (BCS) of S.clavuligerus SC2. The data set can be described thus: Enzymic reduction of (III) to clavulanic acid by broken cell suspension, KaG bioassay. Type of data set: biochemical, Streptomyces clavuligerus.
For data set [4] the test system is unchanged. Described as above. Type of data set: biochemical, Streptomyces clavuligerus. From the text:
Compound (I) was reduced to clavulanic acid by NADPH in the presence of a broken cell suspension of S. clavuligerus SC2 (Table 1). (SC2 is a reisolate of ATCC 27064). The clavulanic acid produced was detected by KaG bioassay (AG. Brown et al J. Antibiot., 1976, 29, 668) and chromatographic tapes loaded with the reaction mixture, were compared with standards to confirm the presence of clavulanic acid. The reduction was complete before a sample could be removed from the reaction vessel, but appeared to give clavulanic acid in only 14% yield. However, should the enzyme be capable of reducing only the Z isomer of (I) (the geometry of clavulanic acid), the yield is 42%.
Enzymic reduction of (III) to clavulanic acid:- solution of (III) (0.23 mg, 1 μmol, estimated by titration of acid (I)) in water ([…] 1μmol) was added to washed 48 hour S.clavuligerus SC2 cells which had been sonicated (EP 0213 914 example 20) (0.5 ml). The suspension was treated with 10 mM NADPH (0.1 ml, 1 umol), made up to one milliliter with 50 mM MOPS buffer at pH 7.0 and incubated in stoppered tubes at 26° C. Samples (0.2 ml) were removed, treated with methanol (0.2 ml) for 5 minutes, and centrifuged. The clear supernatants were made up to 1.6 ml with MOPS buffer and assayed on discs by the KaG method. Undiluted reaction mixture was applied to Whatman No. 1 chromatography tapes which were developed in either butan-1-ol-acetic acid-water (12:3:5) or butan-1-01-ethanol-water (7:1:2), dried, and visualised by application to a KaG bioassay plate. Standard clavulanic acid solutions were developed and visualised similarly.
The source holds these as a separate data set.

The next data set has as its system β-lactamase. The data set can be described thus: β-lactamase inhibitory activity (method not specified). It is filed as biochemical.
Setting [5] is: Boiled BCS + (III) + NADPH 1 mM.

The record followed here is patent publication US6692950B1, “Clavulanic acid dehydrogenase, preparation and use for the production of clavulanic acid” (SmithKline Beecham plc, priority 1993, dated 2004).

Entries after “also recorded” stand apart in the source; their conditions may differ. Read-outs that look alike come from different tables or passages of the source.

As usually defined, the half-life is the time needed for the level to fall by half in the phase considered.

In the case of `O=CC=C1OC2CC(=O)N2C1C(=O)[O-].[Na+]` (stereo not shown) [(III), Sodium 3-Oxoethylidene-7-oxo-4-oxa-1-azabicyclo (3.2.0)heptane-2-carboxylate], the I50 with pre-incubation in data set [1] (with pre-incubation of enzyme and inhibitor, yield of (III) from hydrogenation taken as 35%) came out at 0.01 µg/mL. In data set [1] (without pre-incubation of enzyme and inhibitor, yield of (III) taken as 35%), this compound showed an I50 without pre-incubation of 1 µg/mL. Further, the “% of the original remaining” value in data set [2] (after 35 minutes) was 85%; in data set [2] (after 53 minutes), 63%. The “yield remaining after decomposition on standing (nmr vs fumaric acid)” value in data set [2] (room temperature for 3.5 hours, initial yield 20%) worked out at 3.2%. The “time in which about half had decomposed” value in data set [2] (solution of the salt, room temperature, repeated h.p.l.c. analysis) is “one”. For the same compound, the “Clavulanic Acid at time 0 mins (KaG bioassy)” value in data set [3] ((III) + NADPH 1 mM, no BCS) was determined as 8.8 µg/mL; in data set [3] (BCS + (III) + NADH 1 mM) it was 6.2 µg/mL; in data set [3] (BCS + (III)) it was 8.0 µg/mL; in data set [4] (BCS + (III) + NADPH 1 mM), 28.8 µg/mL; in data set [4] (setting [5]), 6.6 µg/mL. The “Clavulanic Acid at time 60 mins” value was 7.2 µg/mL in data set [3] ((III) + NADPH 1 mM, no BCS); 6.6 µg/mL in data set [3] (BCS + (III) + NADH 1 mM); 7.0 µg/mL in data set [3] (BCS + (III)); 27.2 µg/mL in data set [4] (BCS + (III) + NADPH 1 mM); 6.6 µg/mL in data set [4] (setting [5]).

As to `O=CC=C1CN2C(=O)CC2O1` (stereo not shown) [(V), 3-oxoethylidene-7-oxo-4-oxa-1-azabicyclo [3.2.0] heptane], the “chemical and stereochemical stability” value in data set [2] (organic solution) was “chemically and stereochemically stable in organic solution”.

With `O=CC=C1OC2CC(=O)N2C1C(=O)O` (stereo not shown) [Compound (I), 3-oxoethylidene-7-oxo-4-oxa-1-azabicyclo-[3.2.0] heptane-2-carboxylic acid], the “β-lactamase inhibitory activity (in words)” value in the data set on β-lactamase (chemically synthesised) is on record as “shown to possess β-lactamase inhibitory activity; also recorded: Strong β-lactamase activity”. The “activity as a β-lactamase inhibitor relative to clavulanic acid” value with β-lactamase (more active than clavulanic acid) was “approximately 100 times”. Also, the “rate of decomposition compared with I 111 broth supernatant” value in data set [2] ((I) chemically synthesised from 2R, 5R clavulanic acid) is “same rate of decomposition”. Also, the half-life was approximately 30 min in data set [2] (aqueous solution, read-out: half life in aqueous solution (converted)) and approximately 30 min in data set [2] (at 21° C., read-out: half-life).
